Reference: PubChem BioAssay AID1963984 (Molecular Pharmacology Branch, DTP, NCI, 2024)

Tested on: 233499-124-R-J3-PDC spheroids with HUVEC/MSC, viability
Assay: Anticancer human tumor 233499-124-R-J3-PDC patient-derived colon adenocarcinoma cell line growth inhibition [PI3K]
Settings: for IC50: curve of first compound; for viability, T/C: stronger effect = lower value
In short: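 Viability of mixed-cell spheroids was determined after exposure to pairwise combinations, one partner being inavolisib, alpelisib, duvelisib or copanlisib. Highest tested concentration matched clinical Cmax where known and 10 microM where not, descending in half-log steps.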

[1] = second compound 0.0316 µM, first compound 0.0316 µM
[2] = second compound 0.0316 µM, first compound 0.1 µM
[3] = second compound 0.0316 µM, first compound 0.316 µM
[4] = second compound 0.0316 µM, first compound 1 µM
[5] = second compound 0.0316 µM, first compound 3.16 µM
[6] = second compound 0.0316 µM, first compound 10 µM
[7] = second compound 0.1 µM, first compound 0.0316 µM
[8] = second compound 0.1 µM, first compound 0.1 µM
[9] = second compound 0.1 µM, first compound 0.316 µM
[10] = second compound 0.1 µM, first compound 1 µM
[11] = second compound 0.1 µM, first compound 3.16 µM
[12] = second compound 0.1 µM, first compound 10 µM
[13] = second compound 0.316 µM, first compound 0.0316 µM
[14] = second compound 0.316 µM, first compound 0.1 µM
[15] = second compound 0.316 µM, first compound 0.316 µM
[16] = second compound 0.316 µM, first compound 1 µM
[17] = second compound 0.316 µM, first compound 3.16 µM
[18] = second compound 0.316 µM, first compound 10 µM
[19] = second compound 1 µM, first compound 0.0316 µM
[20] = second compound 1 µM, first compound 0.1 µM
[21] = second compound 1 µM, first compound 0.316 µM
[22] = second compound 1 µM, first compound 1 µM
[23] = second compound 1 µM, first compound 3.16 µM
[24] = second compound 1 µM, first compound 10 µM
[25] = second compound 3.16 µM, first compound 0.0316 µM
[26] = second compound 3.16 µM, first compound 0.1 µM
[27] = second compound 3.16 µM, first compound 0.316 µM
[28] = second compound 3.16 µM, first compound 1 µM
[29] = second compound 3.16 µM, first compound 3.16 µM
[30] = second compound 3.16 µM, first compound 10 µM
[31] = second compound 10 µM, first compound 0.0316 µM
[32] = second compound 10 µM, first compound 0.1 µM
[33] = second compound 10 µM, first compound 0.316 µM
[34] = second compound 10 µM, first compound 1 µM
[35] = second compound 10 µM, first compound 3.16 µM
[36] = second compound 10 µM, first compound 10 µM
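Note: spheroids exposed to agents for seven days before readout.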
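Throughout, for viability, T/C: percent viability relative to DMSO vehicle control taken as 100%.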

SMILES: CC(C)NCC(C(=O)N1CCN(c2ncnc3c2C(C)CC3O)CC1)c1ccc(Cl)cc1 (centres undefined) + Cc1nc(NC(=O)N2CCCC2C(N)=O)sc1-c1ccnc(C(C)(C)C(F)(F)F)c1
- IC50 (second compound 0.0316 µM): > 10 µM
- IC50 (second compound 0.1 µM): > 10 µM
- IC50 (second compound 0.316 µM): > 10 µM
- IC50 (second compound 1 µM): > 10 µM
- IC50 (second compound 3.16 µM): 1.19 µM
- IC50 (second compound 10 µM): < 0.0316 µM
- viability, T/C [1]: 95.8%
- viability, T/C [2]: 104%
- viability, T/C [3]: 94.6%
- viability, T/C [4]: 86.5%
- viability, T/C [5]: 94.3%
- viability, T/C [6]: 56.5%
- viability, T/C [7]: 91.3%
- viability, T/C [8]: 94.7%
- viability, T/C [9]: 96.4%
- viability, T/C [10]: 83.2%
- viability, T/C [11]: 91.6%
- viability, T/C [12]: 51.4%
- viability, T/C [13]: 87.3%
- viability, T/C [14]: 82.3%
- viability, T/C [15]: 80.7%
- viability, T/C [16]: 76.6%
- viability, T/C [17]: 74.1%
- viability, T/C [18]: 72.8%
- viability, T/C [19]: 84.5%
- viability, T/C [20]: 75%
- viability, T/C [21]: 60.7%
- viability, T/C [22]: 71.7%
- viability, T/C [23]: 73.4%
- viability, T/C [24]: 62.1%
- viability, T/C [25]: 63.1%
- viability, T/C [26]: 29.6%
- viability, T/C [27]: 69.9%
- viability, T/C [28]: 59%
- viability, T/C [29]: 33.6%
- viability, T/C [30]: 43%
- viability, T/C [31]: 22.1%
- viability, T/C [32]: 19.2%
- viability, T/C [33]: 28.3%
- viability, T/C [34]: 22.6%
- viability, T/C [35]: 31.3%
- viability, T/C [36]: 23.9%

SMILES: CC1(C)CCC(CN2CCN(c3ccc(C(=O)NS(=O)(=O)c4ccc(NCC5CCOCC5)c([N+](=O)[O-])c4)c(Oc4cnc5[nH]ccc5c4)c3)CC2)=C(c2ccc(Cl)cc2)C1 + Cc1nc(NC(=O)N2CCCC2C(N)=O)sc1-c1ccnc(C(C)(C)C(F)(F)F)c1
- IC50 (second compound 0.0316 µM): 6.18 µM
- IC50 (second compound 0.1 µM): 5.47 µM
- IC50 (second compound 0.316 µM): 5.38 µM
- IC50 (second compound 1 µM): 4.33 µM
- IC50 (second compound 3.16 µM): 2.61 µM
- IC50 (second compound 10 µM): < 0.0316 µM
- viability, T/C [1]: 110%
- viability, T/C [2]: 104%
- viability, T/C [3]: 107%
- viability, T/C [4]: 115%
- viability, T/C [5]: 106%
- viability, T/C [6]: 10.1%
- viability, T/C [7]: 112%
- viability, T/C [8]: 98.1%
- viability, T/C [9]: 66.5%
- viability, T/C [10]: 109%
- viability, T/C [11]: 93%
- viability, T/C [12]: 2.57%
- viability, T/C [13]: 99.9%
- viability, T/C [14]: 89.3%
- viability, T/C [15]: 76%
- viability, T/C [16]: 88.3%
- viability, T/C [17]: 88.9%
- viability, T/C [18]: 5.24%
- viability, T/C [19]: 97.6%
- viability, T/C [20]: 73.7%
- viability, T/C [21]: 80.8%
- viability, T/C [22]: 82.8%
- viability, T/C [23]: 67%
- viability, T/C [24]: 4.35%
- viability, T/C [25]: 61.9%
- viability, T/C [26]: 51.9%
- viability, T/C [27]: 61.8%
- viability, T/C [28]: 62.4%
- viability, T/C [29]: 48.1%
- viability, T/C [30]: 1.21%
- viability, T/C [31]: 32.1%
- viability, T/C [32]: 26.4%
- viability, T/C [33]: 22.6%
- viability, T/C [34]: 31.1%
- viability, T/C [35]: 9.66%
- viability, T/C [36]: 2.29%
